The text below walks through data of patent US20190076452A1, “THERAPEUTIC COMBINATIONS FOR TREATING NEOPLASIA” (MEDIMMUNE LIMITED, priority 2014, published 2019).

Test [1] has as its system CT26 cells. The experiment in a line: CT26 tumor model, preventative treatment before measurable tumor. The class given is in vivo, Balb/C mice. How it is done: (§1) A CT26 model was used in several studies. CT26 cells are murine colon cancer cells. CT26 cells were obtained from the ATCC (Manassas, Va.), and were grown with RPMI supplemented with 10% fetal bovine serum. Following receipt, cell lines were re-authenticated using STR-based DNA profiling and multiplex PCR (IDEXX Bioresearch, Columbia, Mo.). Cells were grown in monolayer culture, harvested by trypsinizatin, and implanted subcutaneously into the right flank of 6-8 week old female Balb/C (CT26), C57/Bl6 (MCA205), or 4-6 week athymic female nude mice (Harlan, Indianapolis, Ind.). For the CT26 tumor model, 5×10^5 cells were implanted in the right flank using a 26-gauge needle. Antibodies were obtained from Anti-PD-1 (RMP1-14), anti-PD-L1 (10F.9G2), anti-CTLA-4 (9D9), and mouse IgG2b control (MPC-11). Mouse OX40 fusion protein (OX40 FP) and Rat IgG2a isotype control antibodies were produced by MedImmune (Gaithersburg, Md.). All antibodies and OX40 FP were dosed via intraperitoneal injection. Doxil (Bluedoor Pharma, Rockville, Md.) and doxorubicin (Henry Schein, Melville, N.Y.) were dosed via intravenous administration. In some studies, isotype controls were administered to mice as a cocktail of rat IgG2a and mouse IgG2b. At the beginning of treatment, mice were either randomized by tumor volume (established-tumor studies) or by body weight (preventative studies). The number of animals per group ranged from between 10-12 animals per group as determined based on sample size calculations using nQuery software. Both tumor and body weight measurements were collected twice weekly and tumor volume calculated using the equation (L×W^2)/2, where L and W refers to the length and width dimensions, respectively. Error bars were calculated as standard error of the mean. The general health of mice was monitored daily and all experiments were conducted in accordance to AAALAC and MedImmune IACUC guidelines for humane treatment and care of laboratory animals.

The test system of test [2] is CT26 tumors. Kind of test: Established CT26 tumors in T cell-deficient athymic nude mice. It counts as in vivo. The note with it: maximally tolerated doses, tumors approximately 200 mm^3, immunodeficient mice. As to the method:
FIG. 4A is a graph showing tumor volume in CT26 tumor-bearing athymic nude mice dosed with Doxil (5 mg/kg) or Doxorubicin (5 mg/kg) as indicated. FIG. 4B is a graph showing tumor volume in CT26 tumor-bearing Balb/C mice dosed with Doxil (5 mg/kg) or Doxorubicin (5 mg/kg) as indicated. FIG. 4C is a graph showing tumor volume in CT26 tumor-bearing athymic nude mice dosed with gemcitabine (75 mg/kg) as indicated. FIG. 4D is a graph showing tumor volume in CT26 tumor-bearing Balb/C mice dosed with gemcitabine (75 mg/kg) as indicated. FIG. 4E is a graph showing tumor volume in CT26 tumor-bearing athymic nude mice dosed with oxiplatin (8 mg/kg) as indicated. […]
(§2) A CT26 model was used in several studies. […] The number of animals per group ranged from between 10-12 animals per group as determined based on sample size calculations using nQuery software. Both tumor and body weight measurements were collected twice weekly and tumor volume calculated using the equation (L×W^2)/2, where L and W refers to the length and width dimensions, respectively. Error bars were calculated as standard error of the mean. The general health of mice was monitored daily and all experiments were conducted in accordance to AAALAC and MedImmune IACUC guidelines for humane treatment and care of laboratory animals.

The subject of test [3] is CT26 tumors. The experiment in a line: Established CT26 tumors in immunocompetent Balb/C mice. It counts as in vivo. The note with it: maximally tolerated doses, tumors approximately 200 mm^3, immunocompetent mice. As to the method:
FIG. 4A is a graph showing tumor volume in CT26 tumor-bearing athymic nude mice dosed with Doxil (5 mg/kg) or Doxorubicin (5 mg/kg) as indicated. FIG. 4B is a graph showing tumor volume in CT26 tumor-bearing Balb/C mice dosed with Doxil (5 mg/kg) or Doxorubicin (5 mg/kg) as indicated. FIG. 4C is a graph showing tumor volume in CT26 tumor-bearing athymic nude mice dosed with gemcitabine (75 mg/kg) as indicated. FIG. 4D is a graph showing tumor volume in CT26 tumor-bearing Balb/C mice dosed with gemcitabine (75 mg/kg) as indicated. FIG. 4E is a graph showing tumor volume in CT26 tumor-bearing athymic nude mice dosed with oxiplatin (8 mg/kg) as indicated. FIG. 4F is a graph showing tumor volume in CT26 tumor-bearing Balb/C mice dosed with oxiplatin (8 mg/kg) as indicated. Arrows indicate dose administration.
as §1, with “Antibodies were obtained from Anti-PD-1 (RMP1-14), anti-PD-L1 (10F.9G2), anti-CTLA-4 (9D9), and mouse IgG2b control (MPC-11). Mouse OX40 fusion protein (OX40 FP) and Rat IgG2a isotype control antibodies were produced by MedImmune (Gaithersburg, Md.). All antibodies and OX40 FP were dosed via intraperitoneal injection. Doxil (Bluedoor Pharma, Rockville, Md.) and doxorubicin (Henry Schein, Melville, N.Y.) were dosed via intravenous administration. In some studies, isotype controls were administered to mice as a cocktail of rat IgG2a and mouse IgG2b. At the beginning of treatment, mice were either randomized by tumor volume (established-tumor studies) or by body weight (preventative studies).” left out

Test [4] concerns CT26 tumors. Kind of test: Established CT26 tumor model, Doxil combined with immunotherapies. It counts as in vivo, Balb/C mice. The note with it: maximally efficacious doses.
Description: FIGS. 5A-5L show synergistic anti-tumor responses of Doxil in combination with multiple immunotherapies in an established CT26 tumor model. FIG. 5A is a graph depicting tumor volume in untreated mice. FIG. 5B is a graph depicting tumor volume in mice administered Doxil. FIG. 5C is a graph depicting tumor volume in mice administered OX40L fusion protein (FP). FIG. 5D is a graph depicting tumor volume in mice administered α-PD-1. FIG. 5E is a graph depicting tumor volume in mice administered α-PD-L1. FIG. 5F is a graph depicting tumor volume in mice administered α-CTLA-4. FIG. 5G is a graph depicting tumor volume in mice administered GITR ligand fusion protein (GITRL FP). FIG. 5H is a graph depicting tumor volume in mice administered Doxil+OX40L FP. […]
as §2, with “animals. […]” for “animals.”

The subject of test [5] is MCA205 tumors. Kind of test: Established MCA205 syngeneic tumor model. The note with it: maximally efficacious doses. It counts as in vivo, C57/Bl6 mice. An excerpt: FIGS. 7A-7L show synergistic anti-tumor responses of Doxil in combination with α-PD-1, α-PD-L1 and α-CTLA-4 antibodies in the MCA205 syngeneic model. FIG. 7A is a graph depicting tumor volume in untreated mice. FIG. 7B is a graph depicting tumor volume in mice administered Doxil. FIG. 7C is a graph depicting tumor volume in mice administered OX40L fusion protein (FP). FIG. 7D is a graph depicting tumor volume in mice administered α-PD-1. FIG. 7E is a graph depicting tumor volume in mice administered α-PD-L1. FIG. 7F is a graph depicting tumor volume in mice administered α-CTLA-4. FIG. 7G is a graph depicting tumor volume in mice administered GITR ligand fusion protein (GITRL FP). […]
As CT26 is highly sensitive to immunotherapies, it was determined whether Doxil could enhance the activity of immunotherapies in a less sensitive model, MCA205. […]
MCA205 cells were obtained from Agonox (Portland, Oreg.) and grown in RPMI supplemented with 10% fetal bovine serum. […] The number of animals per group ranged from between 10-12 animals per group as determined based on sample size calculations using nQuery software. Both tumor and body weight measurements were collected twice weekly and tumor volume calculated using the equation (L×W^2)/2, where L and W refers to the length and width dimensions, respectively. Error bars were calculated as standard error of the mean. […]

The subject of test [6] is xenograft model. Particulars: T-cell dependent mechanism; cited from earlier work.

For the molecule `COc1cccc2c1C(=O)c1c(O)c3c(c(O)c1C2=O)C[C@@](O)(C(=O)CO)C[C@@H]3O[C@H]1C[C@H](N)[C@H](O)[C@H](C)O1` [Doxorubicin, doxorubicin], the “No. of CRs” value in test [1] (1 mg/kg) is listed as 0/10; in test [1] (4 mg/kg) it was 2/10. Besides, the “number of complete responders” value in test [1] (doxorubicin 4 mg/kg alone or combined with antibody) is reported as 2 animals. Further, the anti-tumor activity result in test [2] and in test [3] was “did not elicit anti-tumor activity” throughout.

Take `O=C1[O][Pt]2([NH][C@@H]3CCCC[C@H]3[NH]2)[O]C1=O` [Oxaliplatin]: in test [3], the anti-tumor activity entry is given as “increased antitumor activity”.

On to `Nc1ccn([C@@H]2O[C@H](CO)[C@@H](O)C2(F)F)c(=O)n1` [gemcitabine], for which the anti-tumor activity entry in test [2] and in test [3] was “significant anti-tumor activity” each time.

B1: OX40 FP: mouse OX40 fusion protein produced by MedImmune (protein)
chain: SSSPAKDPPIQRLRGAVTRCEDGQLFISSYKNEYQTMEVQNNSVVIKCDGLYIIYLKGSFFQEVKIDLHFREDHNPISIPMLNDGRRIVFTVVASLAFKDKVYLTVNAPDTLCEHLQINDGELIVVQLTPGYCAPEGSYHSTVNQVPL
modifications: left off: a dimerising Fc or GST
notes: mouse OX40 fusion protein produced by MedImmune
As to B1, the values for the anti-tumor activity entry in test [4] (tumors 200-300 mm^3) and in test [5] (tumors 100-150 mm^3) were “low to moderate activity” and “minimally active”, respectively. For the same molecule, in test [4] (tumors 200-300 mm^3, out of 12 mice), the complete responders result is “a few”. For the same molecule, the complete response entry in test [5] (tumors 100-150 mm^3, out of 12 mice) is “one”.

B2: MEDI4736: human monoclonal antibody directed against human PD-L1 (antibody, V domains shown)
VH: EVQLVESGGGLVQPGGSLRLSCAASGFTFSRYWMSWVRQAPGKGLEWVANIKQDGSEKYYVDSVKGRFTISRDNAKNSLYLQMNSLRAEDTAVYYCAREGGWFGELAFDYWGQGTLVTVSS
VL: EIVLTQSPGTLSLSPGERATLSCRASQRVSSSYLAWYQQKPGQAPRLLIYDASSRATGIPDRFSGSGSGTDFTLTISRLEPEDFAVYYCQQYGSLPWTFGQGTKVEIK
Regarding B2, in test [6], the tumor growth entry is “inhibits tumor growth”.
